For data set [1], the target named is T1, Guinea pig serum ACE (Cavia porcellus, UniProt H0UWL7).
T1 sequence (H0UWL7 33-1234): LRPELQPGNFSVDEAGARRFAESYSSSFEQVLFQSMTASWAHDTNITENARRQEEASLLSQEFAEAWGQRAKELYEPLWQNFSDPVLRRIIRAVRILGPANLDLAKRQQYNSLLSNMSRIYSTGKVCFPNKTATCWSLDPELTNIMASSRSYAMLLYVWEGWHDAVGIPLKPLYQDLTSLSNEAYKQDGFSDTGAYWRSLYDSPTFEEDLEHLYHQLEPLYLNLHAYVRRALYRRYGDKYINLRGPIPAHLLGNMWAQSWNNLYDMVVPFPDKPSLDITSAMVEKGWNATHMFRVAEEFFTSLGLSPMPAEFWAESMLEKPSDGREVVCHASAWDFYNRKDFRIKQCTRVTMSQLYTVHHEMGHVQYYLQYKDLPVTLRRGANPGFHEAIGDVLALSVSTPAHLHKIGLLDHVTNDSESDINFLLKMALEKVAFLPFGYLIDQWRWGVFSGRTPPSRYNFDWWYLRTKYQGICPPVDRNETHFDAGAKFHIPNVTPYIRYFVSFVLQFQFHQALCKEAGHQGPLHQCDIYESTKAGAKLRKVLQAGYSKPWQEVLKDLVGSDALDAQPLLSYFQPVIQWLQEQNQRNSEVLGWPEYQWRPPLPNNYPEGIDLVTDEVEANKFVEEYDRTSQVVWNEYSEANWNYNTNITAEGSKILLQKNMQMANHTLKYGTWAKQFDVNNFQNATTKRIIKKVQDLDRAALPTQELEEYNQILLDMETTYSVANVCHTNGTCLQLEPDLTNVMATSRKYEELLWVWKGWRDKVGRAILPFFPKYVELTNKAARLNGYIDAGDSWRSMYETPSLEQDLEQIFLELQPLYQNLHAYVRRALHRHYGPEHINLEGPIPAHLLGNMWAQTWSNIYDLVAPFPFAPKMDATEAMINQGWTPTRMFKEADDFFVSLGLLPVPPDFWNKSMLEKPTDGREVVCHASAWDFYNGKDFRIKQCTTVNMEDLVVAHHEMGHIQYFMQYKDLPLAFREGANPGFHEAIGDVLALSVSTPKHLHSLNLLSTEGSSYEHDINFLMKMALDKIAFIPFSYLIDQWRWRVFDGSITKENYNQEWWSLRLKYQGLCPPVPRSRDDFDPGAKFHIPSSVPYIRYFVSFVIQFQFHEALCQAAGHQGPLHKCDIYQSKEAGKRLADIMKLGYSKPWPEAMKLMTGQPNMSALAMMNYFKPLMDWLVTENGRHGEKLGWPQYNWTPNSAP
The data set is described as follows: Kinetics of sulfate-stimulated HipHisLeu hydrolysis (Example 4). It counts as biochemical. As to conditions: for V (reaction velocity): pH 8.0, 0.1 M NaCl, 37° C., 10 minutes; for V (reaction velocity) / 1/V: 0.75 M Na2 SO4; for 1/V: 0.1 M NaCl. On the procedure:
In each assay, 50 μl of Guinea pig serum diluted 1-20 (v/v) in the reaction buffer was mixed with 50 μl of buffer containing sufficient ^3 H-HipHisLeu to provide approximately 100,000 cpm total, together with sufficient unlabeled HipHisLeu to produce the desired substrate concentrations, as indicated in Table 2. […] The reaction mixture was then extracted with 1 ml ethyl acetate. 500 μl of the ethyl acetate fraction was sampled and counted in a scintillation counter.

Data set [2] relates to ACE from rabbit lung. The conditions noted are these: removal of sodium chloride from the reaction medium; cited from earlier work.
Data set [3] has as its system ACE. Nature of the data set: Apparent Km for HipHisLeu without sulfate. It is filed as biochemical.
Data set [4] deals with T1, Guinea pig serum ACE. The data set is described as follows: Kinetics of benzoyl-Phe-Ala-Pro hydrolysis (Example 6). It is filed as biochemical. The conditions noted are these: for V (reaction velocity): 37° C., 10 minutes.
The subject of data set [5] is ACE. Nature of the data set: Response of 3H-benzoylPheAlaPro hydrolysis to ions. It counts as biochemical. On the procedure: An even more sensitive assay for ACE activity has been developed using the novel compound ^3 H-benzoylPheAlaPro as substrate. This new substrate can be used to assay ACE in human urine in incubations as short as 15 minutes. The response of this substrate to ions is strikingly different from the response of HipHisLeu. […] This difficulty has been solved by the proper choice of extracting solvent. While a variety of organic solvents may be suitable for the extraction step, it is preferred to employ toluene. Approximately 88% of ^3 H-benzoylPhe enters the toluene phase while only 6% of the unhydrolyzed substrate enters the toluene phase, when toluene and the acidified reaction mixtures are in approximately equal volumes at room temperature.
The enzyme is active over a broad pH range with a maximum around pH 8.0, but is at least about 50% active in the range pH 7.0-pH 8.8, for both HipHisLeu and benzoylPheAlaPro. Although the enzyme is active in a variety of buffer systems known in the art, it is preferred for convenience, when using benzoylPheAlaPro as substrate, to conduct the assays in 0.05 M Hepes buffer, pH 8.0 containing 0.15 M sodium chloride. Detailed protocols for carrying out the assay are given in the examples. […] The preferred concentration range is 1×10^-9 M to 7×10^-5 M.

A short description of data set [6]: Solvent extraction of substrate and remnant product from acidified reaction mixture. It is filed as physicochemical. The text has this:
While a variety of organic solvents may be suitable for the extraction step, it is preferred to employ toluene.

This is an account of results in US4276378A, “High sensitivity assays for angiotensin converting enzyme” (priority 1977, dated 1981).

Peptide text beside a SMILES is read from it. * marks the point of attachment. Bz = O=C(c1ccccc1)*

As for `CC(C)C[C@H](NC(=O)[C@H](Cc1c[nH]cn1)NC(=O)CNC(=O)c1ccccc1)C(=O)O` [HipHisLeu] (Bz-Gly-His-Leu-OH), the Michaelis-Menten constant (Km) – broadly, the substrate concentration at which the rate is half of its maximum – in data set [1] (0.05 M Hepes, pH 8.0, 0.1 M NaCl and 0.75 M Na2 SO4, Lineweaver and Burke plot, read-out: apparent Km) is 177 µM; in data set [3], ~2600 µM. The “V (reaction velocity)” value in data set [1] (HipHisLeu concentration 0.01 mM, 0.05 M Hepes) stood at 0.30 nmol/min/mL; in data set [1] (HipHisLeu concentration 0.02 mM, 0.05 M Hepes), 0.52 nmol/min/mL; in data set [1] (HipHisLeu concentration 0.03 mM, 0.05 M Hepes) it was 0.74 nmol/min/mL; in data set [1] (HipHisLeu concentration 0.04 mM, 0.05 M Hepes), 1.28 nmol/min/mL; in data set [1] (HipHisLeu concentration 0.05 mM, 0.05 M Hepes), 1.14 nmol/min/mL; in data set [1] (HipHisLeu concentration 0.06 mM, 0.05 M Hepes), 1.28 nmol/min/mL. Also, the “V (reaction velocity)” value in data set [1] (HipHisLeu concentration 0.07 mM, 0.05 M Hepes) stood at 2.14 nmol/min/mL; in data set [1] (HipHisLeu concentration 0.08 mM, 0.05 M Hepes) it was 1.76 nmol/min/mL. Besides, the 1/V in data set [1] (HipHisLeu concentration 0.01 mM) was 3.33 mL·min/nmol; in data set [1] (HipHisLeu concentration 0.02 mM), 1.92 mL·min/nmol; in data set [1] (HipHisLeu concentration 0.03 mM), 1.35 mL·min/nmol; in data set [1] (HipHisLeu concentration 0.04 mM) it was 0.78 mL·min/nmol; in data set [1] (HipHisLeu concentration 0.05 mM), 0.88 mL·min/nmol; in data set [1] (HipHisLeu concentration 0.06 mM), 0.78 mL·min/nmol. In addition, the 1/V in data set [1] (HipHisLeu concentration 0.07 mM) was 0.47 mL·min/nmol; in data set [1] (HipHisLeu concentration 0.08 mM), 0.57 mL·min/nmol. Besides, the inhibition of hydrolysis in data set [2] is recorded as 92%.
As for `C[C@H](NC(=O)[C@H](Cc1ccccc1)NC(=O)c1ccccc1)C(=O)N1CCC[C@H]1C(=O)O` [benzoylPheAlaPro, benzoyl-Phe-Ala-Pro] (Bz-Phe-Ala-Pro-OH), in data set [4] (0.05 M Hepes, pH 8.0, 0.15 M NaCl, Guinea pig serum diluted 1:1000), the Vmax (usually the rate approached at saturating substrate) is 10 pmol/min/mL. In addition, the Km in data set [4] (0.05 M Hepes, pH 8.0, 0.15 M NaCl, Lineweaver and Burke plot, read-out: apparent Km) turned out to be 14 µM. The 1/V stood at 1.50 mL·min/pmol in data set [4] (BenzPheAlaPro concentration 1.0 μM), 0.48 mL·min/pmol in data set [4] (BenzPheAlaPro concentration 5.0 μM), 0.24 mL·min/pmol in data set [4] (BenzPheAlaPro concentration 10.0 μM) and 0.11 mL·min/pmol in data set [4] (BenzPheAlaPro concentration 66.7 μM). Also, the V (reaction velocity) in data set [4] (BenzPheAlaPro concentration 1.0 μM, 0.05 M Hepes, pH 8.0, 0.15 M NaCl) is 0.67 pmol/min/mL; in data set [4] (BenzPheAlaPro concentration 5.0 μM, 0.05 M Hepes, pH 8.0, 0.15 M NaCl), 2.08 pmol/min/mL; in data set [4] (BenzPheAlaPro concentration 10.0 μM, 0.05 M Hepes, pH 8.0, 0.15 M NaCl), 4.17 pmol/min/mL; in data set [4] (BenzPheAlaPro concentration 66.7 μM, 0.05 M Hepes, pH 8.0, 0.15 M NaCl) it was 9.09 pmol/min/mL. For the same compound, in data set [5] (3H-benzoylPheAlaPro as substrate), the “effect of sodium sulfate on hydrolysis” value was “not stimulatory”. Also, in data set [5] (added sodium chloride at 0.05 M, 0.05 M Hepes buffer at pH 8.0), the “increase of apparent reaction velocity by added sodium chloride” value is given as “approximately 3 fold”. For the same compound, the “extraction into ethyl acetate” value in data set [6] (reaction terminated with dilute hydrochloric acid) is “almost quantitatively”. Also, in data set [6] (toluene and acidified reaction mixture in approximately equal volumes at room temperature), the “fraction entering the toluene phase” value was found to be 6%.
